One experiment relates to UACC-257. The following applies: UACC-257 (Melanoma); 48 h.
The test system of another experiment is NCI-H23. In words: cells. The following applies: Homo sapiens, NCI-H23, 48 h.
The test system of another experiment is UACC-62. In words: cells. The following applies: Homo sapiens, UACC-62, 48 h.
In the next experiment the test system is 786-0. In words: cells. Particulars: Homo sapiens, 786-0, 48 h.
The test system of the next experiment is SF-268. In words: cells. Particulars: Homo sapiens, SF-268, 48 h.
For another experiment, the system named is TK-10. The following applies: TK-10 (Renal); 48 h.
For another experiment, the system named is RXF393. The experiment in a line: cells. The following applies: Homo sapiens, RXF 393, 48 h.
In experiment [1] the test system is NCI-60 panel of human tumor cell lines. The experiment in a line: NCI-60 in vitro cancer screen (SRB), whole panel. Particulars: all cell lines, read-out: GC-50 values, range over all cell lines. Type of experiment: cell-based. The protocol: Both RARs and HDACs are ubiquitously expressed in cell lines and tissue. It was therefore surmised that hybrid 3 could display cytotoxic activities in a wide variety of cell lines.
The human tumor cell lines of the cancer screening panel are grown in RPMI 1640 medium containing 5% fetal bovine serum and 2 mM L-glutamine. For a typical screening experiment, cells are inoculated into 96 well microtiter plates in 100 μL at plating densities ranging from 5,000 to 40,000 cells/well depending on the doubling time of individual cell lines. After cell inoculation, the microtiter plates are incubated at 37° C., 5% CO2, 95% air and 100% relative humidity for 24 h prior to addition of experimental drugs. […]
Following drug addition, the plates are incubated for an additional 48 h at 37° C., 5% CO2, 95% air, and 100% relative humidity. […] Bound stain is subsequently solubilized with 10 mM trizma base, and the absorbance is read on an automated plate reader at a wavelength of 515 nm. […] Using the absorbance measurements [time zero, (Tz), control growth, (C), and test growth in the presence of drug at the five concentration levels (Ti)], the percentage growth is calculated at each of the drug concentration levels. Percentage growth inhibition is calculated as: [(Ti-Tz)/(C-Tz)]×100 for concentrations for which Ti>/=Tz; and [(Ti-Tz)/Tz]×100 for concentrations for which Ti<Tz. […]

As a reminder, the TGI is the concentration at which net growth stops. What is called GI50 is the concentration giving 50% growth inhibition. As for `CC1(C)CCC(C)(C)c2cc(-c3ccc4cc(C(=O)NO)ccc4c3)ccc21` [hybrid 3], the TGI with UACC-257 amounted to 7.34 µM; with TK-10, 4.97 µM. The GI50 worked out at 996 nM with NCI-H23; 512 nM in the experiment with UACC-62; 1100 nM in the experiment on 786-0; 533 nM with SF-268; 1260 nM in the experiment with RXF393. Further, the CC50 in the experiment with NCI-H23 (read-out: LC50) turned out to be 5.9 µM; in the experiment on UACC-62 (read-out: LC50) it was 5.17 µM; with 786-0 (read-out: LC50) it was 5.12 µM; in the experiment on SF-268 (read-out: LC50) it was 5.05 µM; with RXF393 (read-out: LC50), 6.27 µM. Besides, the IC50 in experiment [1] was 302 to 4300 nM.
